The values below come from PubChem BioAssay (NCI).

Test systems include SF-295 CNS; SK-MEL-5 melanoma; OVCAR-8 ovarian; UACC-257 melanoma; SW-620 colon; OVCAR-3 ovarian; OVCAR-4 ovarian; LOX IMVI melanoma; HL-60(TB) leukemia; ACHN renal.
Holding throughout (test): inhibition of tumour cell growth, NCI panel, 48 h

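Test compounds were applied to cells in 96-well plates for 48 hours at 5 doses. Abbreviation: GI50, concentration required for 50% inhibition of growth. TGI denotes the concentration required for complete inhibition of growth.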 Some results are limits rather than exact numbers.

Consider `C[n+]1c(/C=C/c2c(O)ccc3ccccc23)ccc2ccccc21`, for which the GI50 with SF-295 CNS is 5.82 µM; with SK-MEL-5 melanoma, 4.82 µM; in the test on OVCAR-8 ovarian it was 5.2 µM; in the test with UACC-257 melanoma it was 7.17 µM; with SW-620 colon, 6.06 µM; in the test with OVCAR-3 ovarian, 2.29 µM. Besides, the GI50 in the test on OVCAR-4 ovarian was 3.39 µM; in the test on LOX IMVI melanoma it was 5.65 µM; with HL-60(TB) leukemia, 5.7 µM; with ACHN renal it was 5.1 µM. Besides, the TGI in the test on SF-295 CNS was found to be 13.5 µM; in the test on SK-MEL-5 melanoma, 10.7 µM; in the test on OVCAR-8 ovarian it was 14.9 µM; in the test on UACC-257 melanoma, 14.9 µM; with SW-620 colon, 16.1 µM; with OVCAR-3 ovarian, 8.38 µM. Further, the TGI with OVCAR-4 ovarian is 10.5 µM; with LOX IMVI melanoma, 12.7 µM; with HL-60(TB) leukemia it was 13.4 µM; with ACHN renal it was 11.4 µM.

`Cc1c(O)nc(-n2[nH]c3c(c2=O)CCCC3)[nH]c1=O`: the TGI in the test on SF-295 CNS, in the test on SK-MEL-5 melanoma, in the test on OVCAR-8 ovarian, with UACC-257 melanoma, in the test on SW-620 colon and in the test with OVCAR-4 ovarian was more than 100 µM in each case. Besides, the TGI with HL-60(TB) leukemia and in the test on ACHN renal was more than 100 µM each time.

Turning to `COC(=O)/C=C\C(C#N)(C#N)N=Cc1ccc(C)cc1`, the TGI in the test with SF-295 CNS is 51 µM; in the test on SK-MEL-5 melanoma, 26.9 µM; with OVCAR-8 ovarian it was 6.12 µM; with UACC-257 melanoma, 12.6 µM; in the test on SW-620 colon it was more than 27.9 µM; with OVCAR-3 ovarian it was 5.82 µM. In addition, the TGI came out at 12.9 µM with OVCAR-4 ovarian, 5.8 µM with LOX IMVI melanoma, 8.14 µM with HL-60(TB) leukemia and 6.04 µM with ACHN renal.

In the case of `COc1ccc(C2c3cn[nH]c3CC3CCCCC32)cc1` (stereo not given), the TGI amounted to 29.1 µM in the test with SK-MEL-5 melanoma; 35.6 µM in the test with OVCAR-8 ovarian; 45.9 µM in the test with UACC-257 melanoma; 35.4 µM in the test with SW-620 colon; 28.9 µM in the test on OVCAR-3 ovarian; 43.5 µM in the test on OVCAR-4 ovarian. Also, the TGI is 31.8 µM with LOX IMVI melanoma, 61.2 µM in the test with HL-60(TB) leukemia and 33.1 µM in the test on ACHN renal.

Consider `C=C(C(=O)OCC)C(=O)OCC`, for which the TGI in the test on SF-295 CNS, in the test on SK-MEL-5 melanoma, with OVCAR-8 ovarian, with UACC-257 melanoma, with SW-620 colon and in the test with OVCAR-3 ovarian was more than 100 µM throughout. In addition, the TGI in the test with LOX IMVI melanoma and with ACHN renal was more than 100 µM in each case.

Consider `CCCCCCCCCCCCCCCCNc1cccc2ccccc12`, for which the TGI in the test on SF-295 CNS, in the test with OVCAR-8 ovarian, in the test on UACC-257 melanoma, in the test on SW-620 colon, in the test on OVCAR-3 ovarian and in the test on LOX IMVI melanoma was more than 100 µM each time. Moreover, the TGI in the test with HL-60(TB) leukemia and with ACHN renal was more than 100 µM throughout.

Regarding `O=C1c2cc(-c3ccccc3)cnc2S(=O)(=O)N1c1ccc(Br)cc1`, the TGI in the test on SF-295 CNS was 38.5 µM; in the test on SK-MEL-5 melanoma it was more than 100 µM; in the test on OVCAR-8 ovarian, more than 100 µM; in the test on UACC-257 melanoma, more than 100 µM; in the test with SW-620 colon, more than 100 µM; in the test on OVCAR-3 ovarian it was more than 100 µM. In addition, the TGI with LOX IMVI melanoma, with HL-60(TB) leukemia and in the test with ACHN renal was more than 100 µM in each case.

Regarding `O=C1C=C/C(=N\N=C(c2ccccc2)c2ccccc2)O1`, the TGI in the test with SF-295 CNS, with SK-MEL-5 melanoma, with OVCAR-8 ovarian, in the test on UACC-257 melanoma, in the test with SW-620 colon and with OVCAR-4 ovarian was more than 10 µM throughout. For the same compound, the TGI in the test with LOX IMVI melanoma and with HL-60(TB) leukemia was more than 10 µM throughout.

With `Nc1ccc(N=Nc2c(S(=O)(=O)O)cc3ccccc3c2S(=O)(=O)O)cc1`, the TGI with SF-295 CNS, with SK-MEL-5 melanoma, in the test on OVCAR-8 ovarian, in the test on UACC-257 melanoma, in the test with SW-620 colon and in the test on OVCAR-3 ovarian was more than 100 µM throughout. Besides, the TGI in the test with OVCAR-4 ovarian, with LOX IMVI melanoma and in the test on ACHN renal was more than 100 µM throughout.

Regarding `CC(=O)NC1C(OCc2ccccc2)OC(CO)C(O)C1OCC(=O)N[C@@H](C)C(=O)N[C@H](CCC(=O)NCCCNc1c2ccccc2nc2cccc([N+](=O)[O-])c12)C(N)=O` (stereo not given in full), the TGI with SF-295 CNS was found to be 1.33 µM; in the test with SK-MEL-5 melanoma it was 0.0383 µM; with OVCAR-8 ovarian it was 1.71 µM; with UACC-257 melanoma, 0.177 µM; in the test with OVCAR-3 ovarian, 0.566 µM; with OVCAR-4 ovarian, 0.267 µM. The TGI was 0.259 µM in the test on LOX IMVI melanoma, more than 49.7 µM in the test with HL-60(TB) leukemia and 0.115 µM in the test on ACHN renal.

As for `CC(NC(=O)Cc1ccccc1)NC(=O)C(C)C(=O)Nc1ccccc1` (stereo not given), the TGI in the test with SF-295 CNS, in the test on SK-MEL-5 melanoma, in the test on OVCAR-8 ovarian, in the test with UACC-257 melanoma, with SW-620 colon and in the test with OVCAR-4 ovarian was more than 100 µM in each case. The compound further yielded a TGI with ACHN renal of more than 100 µM.

For the compound `O=[N+]([O-])C(=C(Nc1cccc2cccnc12)Nc1cccc2cccnc12)C(Cl)=C(Cl)Cl`, the TGI was more than 100 µM in the test on SF-295 CNS; 30.5 µM in the test on SK-MEL-5 melanoma; more than 100 µM with OVCAR-8 ovarian; more than 100 µM with SW-620 colon; more than 100 µM in the test with OVCAR-3 ovarian; more than 96.1 µM in the test with OVCAR-4 ovarian. The values for the TGI in the test with LOX IMVI melanoma and in the test with ACHN renal were more than 100 µM and more than 51.1 µM, respectively.

In the case of `COc1cc(OC)cc(C(=O)CC(=O)c2cc(OC)cc(OC)c2)c1`, the TGI in the test with SF-295 CNS, in the test on SK-MEL-5 melanoma, in the test with OVCAR-8 ovarian, in the test with UACC-257 melanoma, with SW-620 colon and with OVCAR-3 ovarian was more than 100 µM throughout. The TGI with HL-60(TB) leukemia and in the test with ACHN renal was more than 100 µM throughout.

As to `CCOC(=O)C1S/C(=N\C(=N)N[N+](=O)[O-])N=C1C` (stereo not given), the TGI in the test with SF-295 CNS, in the test on OVCAR-8 ovarian, in the test with UACC-257 melanoma, in the test with SW-620 colon, in the test with OVCAR-3 ovarian and with OVCAR-4 ovarian was more than 100 µM in each case. Also, the TGI in the test on LOX IMVI melanoma, with HL-60(TB) leukemia and in the test with ACHN renal was more than 100 µM each time.
